ChEMBL document CHEMBL3301361, “Experimental in vitro DMPK and physicochemical data on a set of publicly disclosed compounds”

Key:
in vitro = settings: hepatocytes
physchem = settings: octan-1-ol/water

Structure (SMILES)	hepatocyte CLint (in vitro) [µL/min/1e6 cells]	logD (physchem; pH 7.4, LogD7.4)	logD (physchem; pH 7.4)
CN1CCN(c2ccc(-c3cnc4cccc(-c5cc(F)c(CN6CCOCC6)c(F)c5)c4n3)cc2)CC1	14.4		
Nc1ccc2c(-c3ccncc3)c(-c3ccc(F)cc3)[nH]c2n1	117		
COc1ccc2nc(C)cc(-n3cc(CN4CCN(C(C)=O)CC4)nn3)c2c1	5.13	1.3	
Cc1nc(C(=O)N2CCOC3(CCN(Cc4ccc(Cl)cc4)CC3)C2)cs1	47	2.17	
Cc1cc(NC(=O)Nc2cccc3ccccc23)no1	95.5		
Cn1sc(=O)c2cc(S(=O)(=O)NC3CC3)ccc21	> 150	1.3	
COc1cc2cc(-c3ccc(O)cc3O)nc(C)c2cc1OC	> 150		
NCCc1ccc(O)c2nc(O)sc12	> 150		0.33
c1ccc(Nc2nc3c(s2)CCCc2[nH]ncc2-3)nc1	36.3		
COc1ccc2ncc(F)c(CCN3CCC(NCc4ccc5c(n4)NC(=O)CO5)CC3)c2n1	39.8	1.78	
COc1ccc2ncc(=O)n(CCN3CCC(NCc4cc5c(cn4)OCCO5)CC3)c2c1	> 150	0.93	
C[C@@](C(=O)O[C@H]1C[N+]2(CCCc3cncnc3)CCC1CC2)(c1ccccc1)N1CCCCC1	66		
C[C@@](C(=O)O[C@H]1C[N+]2(CCCc3cc4ccccc4s3)CCC1CC2)(c1ccccc1)N1CCCCC1	65		
C[C@@](C(=O)O[C@H]1C[N+]2(CCOc3ccc(Cl)cc3)CCC1CC2)(c1ccccc1)N1CCCCC1	60		
C[C@@](C(=O)O[C@H]1C[N+]2(CCCOc3ccc(F)cc3)CCC1CC2)(c1ccccc1)N1CCCCC1	66		
C[C@@](C(=O)O[C@H]1C[N+]2(CCOCCc3ccccc3)CCC1CC2)(c1ccccc1)N1CCCCC1	77		
C[C@@](C(=O)O[C@H]1C[N+]2(CC(=O)Nc3ccncn3)CCC1CC2)(c1ccccc1)N1CCCCC1	39		
CC(C)=CCC[N+]12CCC(CC1)[C@@H](OC(=O)[C@](C)(c1ccccc1)N1CCCCC1)C2	101		
CN[C@@H](C)C(=O)N[C@H](C(=O)N[C@H]1C[C@@H]2CC[C@H]1N(CCc1ccccc1)C2)C1CCCCC1	19.9	1.64	

Structure (SMILES)	hepatocyte CLint (in vitro) [µL/min/1e6 cells]	logD (physchem; pH 7.4, LogD7.4)	logD (physchem; pH 7.4)
C[C@@](CCc1ccc(-c2ccc(Cl)cc2)cc1)(C(=O)NO)S(C)(=O)=O	< 3	2.4	
Cc1nn(C)c(C)c1-c1cccc2c(CCCOc3cccc4ccccc34)c(C(=O)O)[nH]c12	61.7		
Cc1ccccc1-c1c(C(=O)O)n(CCCOc2cccc3ccccc23)c2ccccc12	123	3.89	
CCNC(=O)c1ccc(C)c(-n2cnc3ccc(N4CCN(C)CC4)cc3c2=O)c1	< 3	1.47	
O=C(Nc1cccc(-c2nnn[nH]2)c1)c1cccc2[nH]cnc12	44.7	-0.05	
O=C(Nc1cccc(-c2nnn[nH]2)c1)c1cc(O)cc(C(F)(F)F)c1	29.5	0.8	
Nc1cc(C(=O)Nc2cccc(-c3nnn[nH]3)c2)cc(C(F)(F)F)c1	23.4	0.2	
O=C(Nc1cccc(-c2nnn[nH]2)c1)c1cc(F)cc2nc[nH]c12	67.6	0.29	
Cc1ccc(-c2nc3ccccc3[nH]2)cc1NC(=O)c1ccc(OCc2ccccn2)cc1	10.2	3.24	
CCC(=C(c1ccc(O)cc1)c1ccc(OCCN(C)C)cc1)c1ccccc1	56.2		
Cc1ccc(C[C@@H](C(=O)O)N2CCC(CN3CCC(Oc4ccc(Cl)c(Cl)c4)CC3)CC2)cc1	< 3		
Cc1c(C(=O)NC2C3CC4CC(C3)CC2C4)cnn1-c1ccc(C(=O)O)cc1 (stereo unspecified)	< 3		
CSc1c(C(=O)NC2C3CC4CC(C3)CC2C4)cnn1-c1ccc(C(=O)O)cc1 (stereo unspecified)	12.3		
CCC(C)(C)C[C@H](c1ccc(C(=O)O)c(Oc2cccc(Cl)c2)c1)N1CCC[C@H](n2cc(C)c(=O)[nH]c2=O)C1	117	1.37	
CCCCC[C@H](c1ccc(C(=O)O)c(Oc2cccc(Br)c2)c1)N1CCC[C@H](n2cc(C)c(=O)[nH]c2=O)C1	30.2	1.69	
CCC(C)(CC)C[C@H](c1ccc(C(=O)O)c(Oc2cccc(Br)c2)c1)N1CCC[C@H](n2cc(C)c(=O)[nH]c2=O)C1	69.2	1.97	
Cc1cn([C@H]2CCCN([C@H](CC3CCCCC3)c3ccc(C(=O)O)c(Oc4cccc(Cl)c4)c3)C2)c(=O)[nH]c1=O	42.7		
O=C(O)CN1C(=O)C(=O)c2ccccc21	26.9		
Cc1cc(Oc2cc(S(=O)(=O)N3CCC[C@H](n4cc(C)c(=O)[nH]c4=O)C3)ccc2O)ccc1Cl	20.4	2.4	

Structure (SMILES)	hepatocyte CLint (in vitro) [µL/min/1e6 cells]	logD (physchem; pH 7.4, LogD7.4)	logD (physchem; pH 7.4)
O=C(O)c1cc2cc(OCc3ccccc3)ccc2[nH]1	25.7	0.4	
O=c1cc(-c2ccc(Br)cc2)oc2ccccc12	< 3		
CC(C)C[C@H](N)C(=O)NC[C@H](O)C[C@@H](N)CC(=O)NN(C)CC(=O)O	< 3		
Cc1cccc2c(O)nc(-c3ccc(C(F)(F)F)cc3)nc12	45.7		
COc1ccc(C)c(Nc2ncc3ccn(-c4ccccn4)c3n2)c1	83.2		
O=C([C@@H]1CCCN1)N1CCN(c2nc(NCc3ccc(Cl)cc3Cl)c3cccnc3n2)CC1	6	2.41	
CNC(=O)c1c(F)cccc1Nc1nc(Nc2cc3c(cc2OC)CCN3C(=O)CN(C)C)nc2[nH]ccc12	21.9	2.61	
O=C(c1ccc(O)cc1O)N1CCCC1	> 150		
COc1ccc(N(C(=O)c2ccccc2)C(C(=O)NC[C@@H](C)O)c2ccccc2F)c(OC)c1 (stereo partly specified)	> 150		
CS(=O)(=O)N1CC[C@H](N(Cc2ccccc2Cl)c2ccc(C#N)c(Cl)c2)C1	72.4		4
CN(C)CC[C@H](CSc1ccccc1)Nc1ccc(S(=O)(=O)NC(=O)c2ccc(N3CCN(Cc4ccccc4-c4ccc(Cl)cc4)CC3)cc2)cc1[N+](=O)[O-] [ABT 737]	9.55		
CCC1(CCC(C)C)C(=O)NC(=O)NC1=O [AMOBARBITAL]	11.8		
COc1cc2nccc(Oc3ccc(NC(=O)C4(C(=O)Nc5ccc(F)cc5)CC4)cc3)c2cc1OC [CABOZANTINIB]	3.16		
CC1=C(C(=O)O)N2C(=O)[C@@H](NC(=O)[C@H](N)c3ccc(O)cc3)[C@H]2SC1 [CEFADROXIL]	< 3	-0.86	
C[C@H]1Cc2c([nH]c3cc(Cl)c(F)cc23)[C@@]2(N1)C(=O)Nc1ccc(Cl)cc12 [CIPARGAMIN]	8.71		
CC(C)OC(=O)C(C)(C)Oc1ccc(C(=O)c2ccc(Cl)cc2)cc1 [FENOFIBRATE]	54		
O=C(O)c1cc2ccccc2[nH]1 [INDOLE-2-CARBOXYLIC ACID]	11		
N[C@@H](C(=O)N[C@@H]1C(=O)N2C(C(=O)O)=C(Cl)CC[C@H]12)c1ccccc1 [LORACARBEF ANHYDROUS]	< 3		
CO[C@H]1C[C@@H]2CC[C@@H](C)[C@@](O)(O2)C(=O)C(=O)N2CCCC[C@H]2C(=O)O[C@H]([C@H](C)C[C@@H]2CC[C@@H](OC(=O)C(C)(CO)CO)[C@H](OC)C2)CC(=O)[C@H](C)/C=C(\C)[C@@H](O)[C@@H](OC)C(=O)[C@H](C)C[C@H](C)/C=C/C=C/C=C/1C [TEMSIROLIMUS]	> 150		
